Assay results published in patent publication US20230365546A1, “5-SUBSTITUTED INDOLE 3-AMIDE DERIVATIVES, PREPARATION METHOD AND USE THEREOF” (ORIGIANT PHARMACEUTICAL CO., LTD, priority 2020, published 2023).

What was measured:
RIPK1 = RIPK1 (Homo sapiens (Human), UniProt Q13546); test: In vitro kinase assay (Eurofins Kinase Profiler), IC50; format: biochemical; conditions: 0.001-10 μM, read-out: RIPK 1 (IC50)
Method: In vitro kinase assays were conducted using Kinase Profiler services provided by Eurofins. The experimental method was as follows: the small molecule compound to be tested (0.001-10 μM), the protein kinase to be tested were incubated with a buffer containing substrate, 10 mM magnesium acetate, and [γ-^33P-ATP], the reaction was started by adding Mg\TPmix, after incubation for a period of time at room temperature, a 3% phosphate solution was added to the buffer to stop the reaction. Subsequently, 10 μL of the reaction mixture was quantitatively pipetted onto P30 filter paper, which was washed three times with 75 mM phosphate solution and then once with methanol. The P30 filter paper was air-dried and scintillation fluid was added for scintillation counting.

HT-29 cells = test: Protection against programmed necrosis of HT-29 cells (TNF α/Smac mimetic/Z-VAD-FMK, CCK8); format: cell-based; conditions: Homo sapiens, TNF α/Smac mimetic/Z-VAD-FMK induced 24 h, CCK8, read-out: HT-29 (EC50)

RIPK1, sequence (Q13546 whole entry): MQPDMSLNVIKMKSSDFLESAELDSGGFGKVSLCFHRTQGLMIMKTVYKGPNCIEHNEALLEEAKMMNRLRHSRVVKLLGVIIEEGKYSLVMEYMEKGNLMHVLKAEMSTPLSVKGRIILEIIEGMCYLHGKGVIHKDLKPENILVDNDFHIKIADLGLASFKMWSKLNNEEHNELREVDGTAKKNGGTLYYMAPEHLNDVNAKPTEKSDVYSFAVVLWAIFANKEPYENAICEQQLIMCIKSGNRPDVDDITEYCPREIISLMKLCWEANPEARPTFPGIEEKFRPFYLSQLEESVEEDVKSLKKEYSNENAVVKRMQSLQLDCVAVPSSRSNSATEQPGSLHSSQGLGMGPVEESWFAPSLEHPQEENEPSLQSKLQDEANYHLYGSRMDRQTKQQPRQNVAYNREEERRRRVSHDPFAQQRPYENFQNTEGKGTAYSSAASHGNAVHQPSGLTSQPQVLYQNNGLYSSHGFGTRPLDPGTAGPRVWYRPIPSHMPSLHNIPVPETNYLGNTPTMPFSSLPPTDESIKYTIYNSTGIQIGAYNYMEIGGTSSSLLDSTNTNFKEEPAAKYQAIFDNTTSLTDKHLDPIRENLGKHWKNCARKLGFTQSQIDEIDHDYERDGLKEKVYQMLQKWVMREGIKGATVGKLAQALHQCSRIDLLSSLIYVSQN

SMILES | IC50 (RIPK1) | EC50 (HT-29 cells)
C[C@@H](NC(=O)c1cn(C)c2ccc(-c3ccn4nc(NC(=O)C5CC5)nc4c3)cc12)c1cccc(F)c1 [Compound 156] | 10 to 100 nM | < 1 nM
CC(C)C(=O)Nc1nc2cc(-c3cnc4[nH]cc(C(=O)N[C@@H](C)c5cccc(F)c5)c4c3)ccn2n1 [Compound 157] | 10 to 100 nM | 1 to 10 nM
CC(C)C(=O)Nc1nc2cc(-c3cnc4c(c3)c(C(=O)N[C@@H](C)c3cccc(F)c3)cn4C)ccn2n1 [Compound 158] | 1 to 10 nM | < 1 nM
CC(C)C(=O)Nc1nc2cc(-c3cn(C)c4ncc(C(=O)N[C@@H](C)c5cccc(F)c5)cc34)ccn2n1 [Compound 159] | 100 to 1000 nM | 100 to 1000 nM
C[C@H](NC(=O)c1ccc2ncc(-c3ccn4nc(NC(=O)C5CC5)nc4c3)cc2c1)c1cccc(F)c1 [Compound 160] | 10 to 100 nM | 10 to 100 nM
C[C@H](NC(=O)c1cn(C)c2ccc(-c3ccn4nc(NC(=O)C5CCCO5)nc4c3)cc12)c1cccc(F)c1 (stereo partly drawn) [Compound 161] | 1 to 10 nM | < 1 nM
C[C@H](NC(=O)c1cn(C)c2ccc(-c3ccn4nc(NC(=O)N5CC[C@@H](O)C5)nc4c3)cc12)c1cccc(F)c1 [Compound 162, N-((S)-1-(3-fluorophenyl)ethyl)-5-(2-((R)-3-hydroxypyrrolidine-1-carboxamido)-[1,2,4]triazolo[1,5-a]pyridin-7-yl)-1-methyl-1H-indole-3-carboxamide] | 10 to 100 nM | 10 to 100 nM
C[C@H](NC(=O)c1cn(C)c2ccc(-c3ccn4nc(NC(=O)N5CC[C@H](O)C5)nc4c3)cc12)c1cccc(F)c1 [Compound 163] | 100 to 1000 nM | 10 to 100 nM
C[C@H](NC(=O)c1cn(C)c2ccc(-c3ccn4nc(NC(=O)N5CCC[C@H]5CO)nc4c3)cc12)c1cccc(F)c1 [Compound 164] | 100 to 1000 nM | 1 to 10 nM
C[C@H](NC(=O)c1cn(C)c2ccc(-c3ccn4nc(NC(=O)N[C@@H](C)CO)nc4c3)cc12)c1cccc(F)c1 [Compound 165] | 10 to 100 nM | < 1 nM
CC(NC(=O)c1cn(C)c2ccc(-c3ccn4nc(NC(=O)C5CC5)nc4c3)cc12)c1ccc(F)c(F)c1 (stereo not drawn) [Compound 167] | 10 to 100 nM | 10 to 100 nM
C[C@H](NC(=O)c1cn(C)c2ccc(-c3ccn4nc(NC(=O)N5CCCC(O)C5)nc4c3)cc12)c1cccc(F)c1 (stereo partly drawn) [Compound 169] | 1 to 10 nM | < 1 nM
C[C@H](NC(=O)c1cn(C)c2ccc(-c3ccn4nc(NC(=O)N5CCC(O)CC5)nc4c3)cc12)c1cccc(F)c1 [Compound 170] | 1 to 10 nM | < 1 nM
CC(C)CNc1nc2cc(-c3ccc4c(c3)c(C(=O)N[C@@H](C)c3cccc(F)c3)cn4C)ccn2n1 [Compound 171] | 1 to 10 nM | < 1 nM
C[C@H](NC(=O)c1cn(C)c2ccc(-c3ccn4nc(NC(=O)N5CC(O)C5)nc4c3)cc12)c1cccc(F)c1 [Compound 172] | ≥ 1000 nM | 100 to 1000 nM
Cn1cc(C(=O)N2CCC[C@H]2c2cccc(F)c2)c2cc(-c3ccn4nc(NC(=O)C5CC5)nc4c3)ccc21 [Compound 173] | 1 to 10 nM | < 1 nM
CC(C)C(=O)Nc1nc2cc(-c3ccc4c(c3)c(C(=O)N[C@@H](C)c3ccncc3)cn4C)ccn2n1 [Compound 175] | 10 to 100 nM | 10 to 100 nM
C[C@H](NC(=O)c1cn(C)c2ccc(-c3ccn4nc(NC(=O)C5CC5)nc4c3)cc12)c1ccncc1 [Compound 176] | 100 to 1000 nM | 100 to 1000 nM
C[C@H](NC(=O)c1cn(C)c2ccc(-c3ccn4nc(NC(=O)N5CCC[C@@H]5CO)nc4c3)cc12)c1cccc(F)c1 [Compound 177] | 10 to 100 nM | 10 to 100 nM
C[C@H](NC(=O)c1cn(C)c2ccc(-c3ccn4nc(NC(=O)N5CCNCC5)nc4c3)cc12)c1cccc(F)c1 [Compound 178] | 1 to 10 nM | 1 to 10 nM
C[C@H](NC(=O)c1cn(C)c2ccc(-c3ccn4nc(NC(=O)[C@H]5CCCN5)nc4c3)cc12)c1cccc(F)c1 [Compound 179] | < 1 nM | < 1 nM
C[C@H](NC(=O)c1cn(C)c2ccc(-c3ccn4nc(NC(=O)[C@@H]5CCCN5)nc4c3)cc12)c1cccc(F)c1 [Compound 180] | 1 to 10 nM | < 1 nM
COc1ccc([C@H](C)NC(=O)c2cn(C)c3ccc(-c4ccn5nc(NC(=O)C6CC6)nc5c4)cc23)cc1F [Compound 181] | 100 to 1000 nM | 100 to 1000 nM
C[C@H](NC(=O)c1cn(C)c2ccc(-c3ccn4nc(NC(=O)C5CC5)nc4c3)cc12)c1ccc(F)c(F)c1 [Compound 182] | 1 to 10 nM | < 1 nM
Cn1cc(C(=O)N[C@H]2CCc3ccc(F)cc32)c2cc(-c3ccn4nc(NC(=O)C5CC5)nc4c3)ccc21 [Compound 183] | 100 to 1000 nM | 100 to 1000 nM
Cn1cc(C(=O)N[C@H]2CCCc3ccc(F)cc32)c2cc(-c3ccn4nc(NC(=O)C5CC5)nc4c3)ccc21 [Compound 184] | 100 to 1000 nM | 100 to 1000 nM
Cn1cc(C(=O)N2CCCC2c2cccc(F)c2)c2cc(-c3ccn4nc(NC(=O)C5CC5)cc4n3)ccc21 (stereo not drawn) [Compound 185] | 1 to 10 nM | < 1 nM

SMILES | IC50 (RIPK1) | EC50 (HT-29 cells)
C[C@H](NC(=O)c1cn(C)c2ncc(-c3ccn4nc(NC(=O)C5CC5)nc4c3)cc12)c1cccc(F)c1 [Compound 186] | 100 to 1000 nM | 100 to 1000 nM
Cn1cc(C(=O)N2CCCC2c2cccc(F)c2)c2cc(-c3ccc4nc(NC(=O)C5CC5)cn4n3)ccc21 (stereo not drawn) [Compound 187] | < 1 nM | < 1 nM
Cn1cc(C(=O)N[C@H]2CCCc3ccccc32)c2cc(-c3ccc4nc(NC(=O)C5CC5)cn4n3)ccc21 [Compound 188] | 100 to 1000 nM | 100 to 1000 nM
Cc1cccc(C2CCCN2C(=O)c2cn(C)c3ccc(-c4ccn5nc(NC(=O)C6CC6)nc5c4)cc23)c1 (stereo not drawn) [Compound 189] | 100 to 1000 nM | 100 to 1000 nM
Cn1cc(C(=O)N2CCCC2c2cc(F)ccc2F)c2cc(-c3ccn4nc(NC(=O)C5CC5)nc4c3)ccc21 (stereo not drawn) [Compound 190] | 1 to 10 nM | 1 to 10 nM
Cn1cc(C(=O)N2CCC[C@H]2c2cc(F)cc(F)c2)c2cc(-c3ccn4nc(NC(=O)C5CC5)nc4c3)ccc21 [Compound 192] | < 1 nM | < 1 nM
Cn1cc(C(=O)N2CCC[C@H]2c2ccc(Cl)cc2)c2cc(-c3ccn4nc(NC(=O)C5CC5)nc4c3)ccc21 [Compound 194] | < 1 nM | < 1 nM
CNC(=O)Nc1nc2cc(-c3ccc4c(c3)c(C(=O)N[C@@H](C)c3cccc(F)c3)cn4C)ccn2n1 [Compound 195] | < 1 nM | < 1 nM
C[C@H](NC(=O)c1cn(C)c2ccc(-c3ccn4nc(N[C@@H](C)CO)nc4c3)cc12)c1cccc(F)c1 [Compound 196] | 10 to 100 nM | < 1 nM
CCn1cc(C(=O)N2CCC[C@H]2c2ccc(F)cc2)c2cc(-c3ccn4nc(NC(=O)C5CC5)nc4c3)cnc21 [Compound 197] | 1 to 10 nM | < 1 nM
CCn1cc(C(=O)N2CCC[C@H]2c2ccc(F)cc2)c2cc(-c3ccn4nc(NC(=O)[C@H](C)OC(C)=O)nc4c3)ccc21 [Compound 198] | 10 to 100 nM | 1 to 10 nM
CC[C@H](NC(=O)c1cn(CC)c2ccc(-c3ccn4nc(NC(=O)C5CC5)nc4c3)cc12)c1ccc(F)cc1 [Compound 199] | 1 to 10 nM | < 1 nM
CCn1cc(C(=O)N[C@H](c2ccc(F)cc2)C2CC2)c2cc(-c3ccn4nc(NC(=O)C5CC5)nc4c3)ccc21 [Compound 200] | 10 to 100 nM | < 1 nM
CCn1cc(C(=O)N2CCC[C@H]2c2ccc(F)cc2)c2cc(-c3ccn4nc(NC(=O)CN(C)C)nc4c3)ccc21 [Compound 201] | 10 to 100 nM | 1 to 10 nM
Cn1cc(C(=O)N2C(CO)CC[C@H]2c2ccc(F)cc2)c2cc(-c3ccn4nc(NC(=O)C5CC5)nc4c3)ccc21 (stereo partly drawn) [Compound 202] | ≥ 1000 nM | 10 to 100 nM
Cn1cc(C(=O)N[C@@H](CO)c2ccc(F)cc2)c2cc(-c3ccn4nc(NC(=O)C5CC5)nc4c3)ccc21 [Compound 203] | 10 to 100 nM | < 1 nM
CCn1cc(C(=O)N2CCC[C@H]2c2ccc(F)cc2)c2cc(-c3ccn4nc(NC(=O)[C@@H](C)O)nc4c3)ccc21 [Compound 204] | 10 to 100 nM | < 1 nM
CCn1cc(C(=O)N2CCC[C@H]2c2ccc(F)cc2)c2cc(-c3ccn4nc(NC(=O)[C@H](C)O)nc4c3)ccc21 [Compound 205] | 10 to 100 nM | < 1 nM
[2H]C([2H])([2H])n1cc(C(=O)N[C@H](c2ccc(F)cc2)C2CC2)c2cc(-c3ccn4nc(NC(=O)C5CC5)nc4c3)ccc21 [Compound 206] | 1 to 10 nM | < 1 nM
[2H]C([2H])([2H])n1cc(C(=O)N[C@H](c2ccc(F)cc2)C2CC2)c2cc(-c3ccn4nc(NC(=O)CN(C)C)nc4c3)ccc21 [Compound 207] | 100 to 1000 nM | 1 to 10 nM
[2H]C([2H])([2H])n1cc(C(=O)N[C@@H](CC)c2ccc(F)cc2)c2cc(-c3ccn4nc(NC(=O)C5CC5)nc4c3)ccc21 [Compound 208] | 10 to 100 nM | < 1 nM
CCN(CC)CC(=O)Nc1nc2cc(-c3ccc4c(c3)c(C(=O)N3CCC[C@H]3c3ccc(F)cc3)cn4C)ccn2n1 [Compound 209] | 1 to 10 nM | < 1 nM
CCn1cc(C(=O)N[C@H](c2ccc(F)cc2)C2CC2)c2cc(-c3ccn4nc(NC(=O)CN(C)C)nc4c3)ccc21 [Compound 210] | 10 to 100 nM | < 1 nM
CC[C@H](NC(=O)c1cn(CC)c2ccc(-c3ccn4nc(NC(=O)CN(C)C)nc4c3)cc12)c1ccc(F)cc1 [Compound 211] | 1 to 10 nM | < 1 nM
CCn1cc(C(=O)N[C@@H](CF)c2ccc(F)cc2)c2cc(-c3ccn4nc(NC(=O)C5CC5)nc4c3)ccc21 [Compound 212] | 1 to 10 nM | < 1 nM
C[C@H]1CC[C@@H](c2ccc(F)cc2)N1C(=O)c1cn(C)c2ccc(-c3ccn4nc(NC(=O)C5CC5)nc4c3)cc12 [Compound 213] | 1 to 10 nM | < 1 nM
CCn1cc(C(=O)N[C@H](c2ccc(F)cc2)C2CC2)c2cc(-c3ccn4nc(NC5CC5)nc4c3)ccc21 [Compound 214] | ≥ 1000 nM | ≥ 1000 nM
